For this experiment, the target named is T1, human apelin receptor (Homo sapiens, UniProt P35414).
T1 construct: expressed in transfected cells
T1 sequence (P35414 1-380): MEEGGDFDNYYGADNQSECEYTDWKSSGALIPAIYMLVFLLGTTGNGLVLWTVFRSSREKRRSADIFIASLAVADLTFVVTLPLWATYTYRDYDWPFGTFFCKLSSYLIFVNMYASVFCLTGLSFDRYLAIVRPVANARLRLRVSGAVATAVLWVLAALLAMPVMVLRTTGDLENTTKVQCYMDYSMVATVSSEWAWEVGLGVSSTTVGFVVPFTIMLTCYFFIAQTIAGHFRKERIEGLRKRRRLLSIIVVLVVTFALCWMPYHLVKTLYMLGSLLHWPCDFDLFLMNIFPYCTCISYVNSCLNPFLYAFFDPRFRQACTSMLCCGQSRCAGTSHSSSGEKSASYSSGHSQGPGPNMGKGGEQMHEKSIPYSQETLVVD
The experiment is described as follows: Determination of agonism on the human apelin receptor by a calcium fluorescence assay (FLIPR). In kind it is cell-based. Particulars: HEK293 cells stably transfected with human apelin receptor and Giaq protein, Fluo-4 calcium fluorescence, read-out: EC50 (APJ agonism). In outline: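 HEK293 cells stably co-expressing human apelin receptor and promiscuous Giaq, loaded 1 h at 37 °C with Fluo-4 (4 μM) in probenecid-containing Hepes buffer, pH 7.4. Compounds, at least 7 concentrations in triplicate, added in FLIPR Tetra; peak calcium fluorescence normalized to 1 μM apelin-13 as 100% to derive EC50.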

This is an account of results in patent US9156796B2, “Benzoimidazole-carboxylic acid amide derivatives as APJ receptor modulators” (SANOFI, priority 2013, dated 2015).

Structures are written as SMILES.

One may read the EC50 as the concentration giving half of the maximal effect.

Regarding `CCC(CC)n1c(Cc2cccs2)nc2cc(C(=O)N[C@@H](CC(C)C)C(=O)NCC3CCCN(Cc4ccccc4)C3)ccc21` (stereo partly drawn) [Example 286, 1-(1-Ethyl-propyl)-2-thiophen-2-ylmethyl-1H-benzoimidazole-5-carboxylic acid {(S)-1-[(1-benzyl-piperidin-3-ylmethyl)-carbamoyl]-3-methyl-butyl}-amide], the 50% effective concentration (EC50) stood at 1100 nM. Under `CCC(CC)n1c(Cc2cccs2)nc2cc(C(=O)NC(CC(=O)O)CC3CCCCC3)ccc21` (single isomer, unassigned) [Example 455] stands 160 nM; under `CCC(CC)n1c(Cc2cccs2)nc2cc(C(=O)N[C@@H](CC(C)C)C(=O)NCCCOCC3CCCO3)ccc21` (stereo partly drawn) [Example 388, 1-(1-Ethyl-propyl)-2-thiophen-2-ylmethyl-1H-benzoimidazole-5-carboxylic acid {(S)-3-methyl-1-[3-(tetrahydro-furan-2-ylmethoxy)-propylcarbamoyl]-butyl}-amide], 1590 nM.

Turning to `CCC(CC)n1c(Cc2cccs2)nc2cc(C(=O)N[C@@H](CC(C)C)C(=O)NCCN3CCCC3)ccc21` [Example 230, 1-(1-Ethyl-propyl)-2-thiophen-2-ylmethyl-1H-benzoimidazole-5-carboxylic acid [(S)-3-methyl-1-(2-pyrrolidin-1-yl-ethylcarbamoyl)-butyl]-amide], the concentration giving a half-maximal response (EC50) was determined as 288 nM. Under `CCC(CC)n1c(Cc2cccs2)nc2cc(C(=O)N[C@@H](CC(C)C)C(=O)NCC3CN(C)CCO3)ccc21` (stereo partly drawn) [Example 343, 1-(1-Ethyl-propyl)-2-thiophen-2-ylmethyl-1H-benzoimidazole-5-carboxylic acid {(S)-3-methyl-1-[(4-methyl-morpholin-2-ylmethyl)-carbamoyl]-butyl}-amide] stands 419 nM.

Consider `CCCCC(CC(=O)O)NC(=O)c1ccc2c(c1)nc(Cc1cccs1)n2[C@@H]1CCCC[C@H]1C` (single isomer, unassigned) [Example 461], for which the EC50 is 3430 nM. Under `C[C@@H]1CCCC[C@H]1n1c(Cc2cccs2)nc2cc(C(=O)NC(CC3CCCCCC3)C(=O)O)ccc21` (single isomer, unassigned) [Example 451] stands 1230 nM; under `CCC(C)n1c(Cc2cccs2)nc2cc(C(=O)N[C@@H](CC3CCCCC3)C(=O)O)ccc21` (stereo partly drawn) [Example 140, (S)-2-[(1-sec-Butyl-2-thiophen-2-ylmethyl-1H-benzoimidazole-5-carbonyl)-amino]-3-cyclohexyl-propionic acid], 3800 nM; under `CCC(CC)n1c(Cc2cscn2)nc2cc(C(=O)N[C@H](CC(=O)O)CC(C)C)ccc21` [Example 98, (S)-3-{[1-(1-Ethyl-propyl)-2-thiazol-4-ylmethyl-1H-benzoimidazole-5-carbonyl]-amino}-5-methyl-hexanoic acid], 2190 nM.

For the compound `CC(C)C[C@H](NC(=O)c1ccc2c(c1)nc(Cc1cccs1)n2C1CCCCC1C)C(=O)O` (stereo partly drawn) [Example 146, (S)-4-Methyl-2-{[1-(2-methyl-cyclohexyl)-2-thiophen-2-ylmethyl-1H-benzoimidazole-5-carbonyl]-amino}-pentanoic acid], the EC50 came to 328 nM. Under `CCC(CC)n1c(Cc2cccs2)nc2cc(C(=O)N[C@@H](CC(C)C)C(=O)N3CCN(c4ccc(F)cc4)CC3)ccc21` [Example 270, 1-(1-Ethyl-propyl)-2-thiophen-2-ylmethyl-1H-benzoimidazole-5-carboxylic acid {(S)-1-[4-(4-fluoro-phenyl)-piperazine-1-carbonyl]-3-methyl-butyl}-amide] stands 10800 nM.

As for `CCC(CC)n1c(Cc2cccs2)nc2cc(C(=O)NC3(C(=O)O)CCCC3)ccc21` [Example 6, 1-{[1-(1-Ethyl-propyl)-2-thiophen-2-ylmethyl-1H-benzoimidazole-5-carbonyl]-amino}-cyclopentanecarboxylic acid], the EC50 came to 3820 nM. As for `CCC(CC)n1c(Cc2cccs2)nc2cc(C(=O)N[C@@H](CC(C)C)C(=O)N3CC4CC3CN4c3cccc(F)c3)ccc21` (stereo partly drawn) [Example 326, 1-(1-Ethyl-propyl)-2-thiophen-2-ylmethyl-1H-benzoimidazole-5-carboxylic acid {(S)-1-[5-(3-fluoro-phenyl)-2,5-diaza-bicyclo[2.2.1]heptane-2-carbonyl]-3-methyl-butyl}-amide], the figure is 16400 nM; as for `CCCC[C@H](NC(=O)c1ccc2c(c1)nc(Cc1cccs1)n2C1CCCCC1C)C(=O)O` (single isomer, unassigned) [Example 423], 9730 nM; as for `CCC(CC)n1c(Cc2ccccc2)nc2cc(C(=O)N[C@H](CC(=O)O)CC(C)C)ccc21` [Example 157, (S)-3-{[2-Benzyl-1-(1-ethyl-propyl)-1H-benzoimidazole-5-carbonyl]-amino}-5-methyl-hexanoic acid], 10000 nM.

For the compound `CCC(CC)n1c(Cc2cccs2)nc2cc(C(=O)N[C@H](Cc3noc(-c4ccccc4)n3)CC(C)C)ccc21` [Example 474, 1-(1-Ethyl-propyl)-2-thiophen-2-ylmethyl-1H-benzoimidazole-5-carboxylic acid [(S)-3-methyl-1-(5-phenyl-[1,2,4]oxadiazol-3-ylmethyl)-butyl]-amide], the EC50 worked out at 34500 nM. Regarding `CC(C)C[C@@H](CC(=O)O)NC(=O)c1ccc2c(c1)nc(Cc1cncs1)n2[C@@H]1CCCC[C@H]1C` [Example 106, (S)-5-Methyl-3-{[1-((1R,2R)-2-methyl-cyclohexyl)-2-thiazol-5-ylmethyl-1H-benzoimidazole-5-carbonyl]-amino}-hexanoic acid], the EC50 was 48 nM. As for `CCC(CC)n1c(Cc2cccs2)nc2cc(C(=O)N[C@H](CC(=O)O)Cc3ccccc3)ccc21` [Example 100, (S)-3-{[1-(1-Ethyl-propyl)-2-thiophen-2-ylmethyl-1H-benzoimidazole-5-carbonyl]-amino}-4-phenyl-butyric acid], the figure is 5840 nM; as for `CCC(CC)n1c(Cc2cccs2)nc2cc(C(=O)N[C@@H](CC(C)C)C(=O)N3CCCC3)ccc21` [Example 379, 1-(1-Ethyl-propyl)-2-thiophen-2-ylmethyl-1H-benzoimidazole-5-carboxylic acid [(S)-3-methyl-1-(pyrrolidine-1-carbonyl)-butyl]-amide], 1800 nM. Under `CCC(CC)n1c(Cc2cccs2)nc2cc(C(=O)N[C@@H](CC(C)C)C(=O)NC3CCN(Cc4ccncc4)CC3)ccc21` [Example 298, 1-(1-Ethyl-propyl)-2-thiophen-2-ylmethyl-1H-benzoimidazole-5-carboxylic acid [(S)-3-methyl-1-(1-pyridin-4-ylmethyl-piperidin-4-ylcarbamoyl)-butyl]-amide] stands 1260 nM; under `CCC(CC)n1c(Cc2cccs2)nc2cc(C(=O)N[C@@H](CO)CC(C)C)ccc21` [Example 191, 1-(1-Ethyl-propyl)-2-thiophen-2-ylmethyl-1H-benzoimidazole-5-carboxylic acid ((R)-1-hydroxymethyl-3-methyl-butyl)-amide], 6300 nM; under `CCC(CC)n1c(Cc2cccs2)nc2cc(C(=O)N[C@@H](CC(C)C)C(=O)NCCSC)ccc21` [Example 258, 1-(1-Ethyl-propyl)-2-thiophen-2-ylmethyl-1H-benzoimidazole-5-carboxylic acid [(S)-3-methyl-1-(2-methylsulfanyl-ethylcarbamoyl)-butyl]-amide], 1330 nM.
